Measured values: US9937104B2, “Nanostructured antibacterial and remineralizing dental bonding agents and dental bonding systems” (UNIVERSITY OF MARYLAND, BALTIMORE, priority 2012, dated 2018)
“Also recorded” adds a separate entry of the source.

Experiments:
[1] = system: S. mutans (ATCC 700610, UA159); experiment: MIC and MBC by serial microdilution; type: cell-based, Streptococcus mutans; settings: for MIC and MBC relative to QADM: compared with QADM
Experimental: MIC and MBC were measured using S. mutans (ATCC 700610, UA159, American Type Culture, Manassas, Va.). S. mutans is a cariogenic, aerotolerant anaerobic bacterium and the primary causative agent of dental caries (Loesche 1986). MIC and MBC were determined via serial microdilution assays (Imazato S et al. 2006; Huang L et al. 2011). Unpolymerized DMAHM or DMADM monomer was dissolved in brain heart infusion (BHI) broth (BD, Franklin Lakes, N.J.) to give a final concentration of 200 mg/mL. From these starting solutions, serial two fold dilutions were made into 1 mL volumes of BHI broth. 15 μL of stock S. mutans was added to 15 mL of BHI broth with 0.2% sucrose and incubated at 37° C. with 5% CO2. Overnight cultures of S. mutans were adjusted to 2×10^6 CFU/mL with BHI broth, and 50 μL of inocula was added to each well of a 96-well plate containing 50 μL of a series of antibacterial monomer dilution broths. BHI broth with 1×10^6 CFU/mL bacteria suspension without antibacterial agent served as negative control. Chlorhexidine diacetate (CHX) (Sigma, St. Louis, Mo.) served as positive control. The previously-synthesized QADM (Antonucci J M et al. 2012; Cheng L et al. 2012a) served as an antibacterial monomer control. After incubation at 37° C. in 5% CO2 for 48 h, the wells were read for turbidity, referenced by the negative and positive control wells. MIC was determined as the endpoint (the well with the lowest antibacterial agent concentration) where no turbidity could be detected with respect to the controls (Huang L et al. 2011). To determine MBC, an aliquot of 50 μL from each well without turbidity was inoculated on BHI agar plates and incubated at 37° C. in 5% CO2 for 48 h. MBC was determined as the lowest concentration of antibacterial agent that produced no colonies on the plate. The tests were performed in triplicate (Huang L et al. 2011).
The use of S. mutans (ATCC 700610, American Type Culture, Manassas, Va.) was approved by the University of Maryland. S. mutans is a cariogenic, aerotolerant anaerobic bacterium and the primary causative agent of dental caries (Deng et al. 2004). MIC and MBC were determined via serial microdilution assays (Imazato et al. 2006; Huang et al. 2011). Unpolymerized DMAHM or DMADDM monomer was dissolved in brain heart infusion (BHI) broth (BD, Franklin Lakes, N.J.) to a concentration of 200 mg/mL. From these starting solutions, serial two fold dilutions were made into 1 mL volumes of BHI broth. […] The wells were read for turbidity after incubation at 37° C. in 5% CO2 for 48 h, referenced by the negative and positive control wells. MIC was defined as the endpoint (the well with the lowest antibacterial agent concentration) where no turbidity could be detected with respect to the controls (Huang et al. 2011). […]

[2] = system: Human gingival fibroblasts (HGF); type: cell-based; settings: MTT
Experimental: Human gingival fibroblasts (HGF, ScienCell) were cultured in a fibroblast medium (FM). […] Then, HGF were seeded in 96-well plates at 5,000 cells per well. […] After 4 h, the unreacted dye was removed and 150 μL of dimethyl sulfoxide was added. Absorbance was measured via the microplate reader at 492 nm. […] Cells were also live/dead stained (Molecular Probes) and examined with fluorescence microscopy (TE2000-S, Nikon) as shown in FIG. 15B.

[3] = system: mature biofilms (48 hours); experiment: Mature biofilm (48 hours) CFU, antibacterial monomers in primer and adhesive; type: cell-based; settings: 10% mass fraction in primer and adhesive (P&A control)
Experimental: FIG. 29. Effect of antibacterial monomers from Table 1, with chain length (CL) of 3, 6, 9, 12, 16 and 18, on mature biofilms (48 hours). Each monomer was mixed into the primer and adhesive control (P&A control) at 10% mass fraction (mean+−sd; n=6). […] CL=16 reduced the biofilm CFU by 4 orders of magnitude, compared to control.
FIG. 31. Effect of mass fraction of the antibacterial monomer DMAHDM (with chain length of 16) on mature biofilms (48 hours) (mean+−sd; n=6). […] DMAHDM at 10% mass fraction reduced the biofilm CFU by nearly 4 orders of magnitude, compared to control.

Structure (SMILES) | MIC and MBC relative to QADM ([1]; S. mutans) | MIC and MBC relative to those of DMAHM ([1]; S. mutans, compared with DMAHM) | Cytotoxicity compared with BisGMA [2] | Reduction of mature biofilm CFU compared to control [3] | MBC and MIC potency relative to chain length 12 ([1]; compared with chain length 12 monomer)
C=C(C)C(=O)OCC[N+](C)(C)CCCCCC.[Br-] [DMAHM] | a lower concentration, by an order of magnitude | – | – | – | –
C=C(C)C(=O)OCC[N+](C)(C)CCCCCCCCCCCC.[Br-] [DMADDM, dimethylamino dodecyl methacrylate] | four orders of magnitude lower | more than two orders of magnitude lower; also recorded: three orders of magnitude lower | less cytotoxic | – | –
C=C(C)C(=O)OCCCCCCCCCCCC[n+]1ccccc1.[Br-] [MDPB, reference compound] | – | – | less cytotoxic | – | –
C=C(C)C(=O)OCC[N+](C)(C)CCCCCCCCCCCCCCCC.[Br-] [DMAHDM, dimethylamino hexadecyl methacrylate] | – | – | – | 4 orders of magnitude | an order of magnitude more potent
